Measured values as given in patent EP4772510A2, “BENZAZEPINONE COMPOUND AND USE THEREOF” (HANGZHOU BIO-SINCERITY PHARMA-TECHCO., LTD., priority 2023, dated 2025).

Tests used:
HT-29 cells = test: Inhibition of TNF-α-induced necroptosis of HT-29 cells (SRB method); assay type: cell-based, human; details: Homo sapiens, HT-29, TNF-α 20 ng/mL + BV6 2 µM + Z-VAD-FMK 20 µM, 18 h
Description: Example 57: Inhibition of TNF-α-Induced Necroptosis of HT-29 Cells by Compounds
• 1. Experimental reagents: McCOY's 5A culture medium, fetal bovine serum, penicillin-streptomycin, trypsin, PBS, TNF-α (MCE, HY-P7058), BV6 (MCE, HY-16701), Z-VAD-FMK (MCE, HY-16658B), SRB kit (Shanghai BestBio Biotechnology Co., Ltd., BB-4208-500T). • 2. Experimental instruments: medical low-temperature freezer (Thermo Fisher scientific, 902-ULTS), electrically heated thermostatic water bath (Shanghai Bluepard Instruments Co., Ltd., CD-420), low-speed centrifuge (ANHUI USTC Zonkia Scientific Instruments Co., Ltd, SC-3616), carbon dioxide incubator (Shanghai Bluepard Instruments Co., Ltd., BPN-150CH(UV)), inverted microscope (Olympus, CKX53), multi-functional microplate reader (Thermo Tecan, SPARK), class-II biosafety cabinet (AIRTECH, BSC-1304IIA2), and desktop cell counter (Thermo Fisher Scientific, Countess II). • 3. Cell culturing: HT-29 cells (human colon cancer cells) were cultured in a McCOY's 5A culture solution containing 10% fetal bovine serum and 1% penicillin-streptomycin solution in a 5% CO 2 at 37 °C and a saturated humidity, and culture medium changes and cell passaging were performed 3-4 times a week. • 4. […] The culture medium, trypsin, etc., were taken out from the freezer and transferred to the water bath for pre-heating. An appropriate amount of these substances was then taken for use. • (2) The old culture medium in the flask was aspirated using a sterile pipette and discarded, and the cells were washed 3 times with PBS. 1 mL of trypsin (25 cm^2 cell culture flask) was added into the flask, and the flask was gently shaken to allow the trypsin to cover all the cell surfaces. Digestion was performed in an incubator at 37 °C. After 2 min of digestion, the flask was placed under a microscope for observation. […] The mixture was gently pipetted using a pipette to homogenize the cells and thus prepare a single-cell suspension, and the cells were counted. • (5) The cells were diluted to 3 × 10^5/mL and seeded into a 96-well plate at 100 µL/well, such that there were 3 × 10^4 cells per well in the 96-well plate. The cells were incubated in a 5% CO2 incubator at 37 °C and a saturated humidity for 24 h, followed by the addition of compounds. • 4.2 Dilution and addition of compounds: • (1) TNF-α was dissolved in PBS to obtain a 100 µg/mL stock solution and aliquoted; Z-VAD-FMK was dissolved in DMSO to obtain a 10 mM stock solution and aliquoted; BV6 was dissolved in DMSO to obtain a 10 mM stock solution and aliquoted; GSK2982772 was dissolved in DMSO to obtain a 10 mM stock solution and aliquoted. One aliquot of each stock solution was stored at -20 °C for immediate use, while the remaining aliquots were stored at - 80 °C and used within their shelf life. • (2) McCOY's 5A culture solution containing TNF-α, BV6, and Z-VAD-FMK was prepared. For the positive control group and the test compound groups, the McCOY's 5A culture solution was added at 90 µL/well, and 10 µL of the culture medium containing the test compound was also added, thus making the final concentrations of TNF-α, BV6, and Z-VAD-FMK be 20 ng/mL, 2 µM, and 20 µM, respectively. For the DMSO (5‰) control group, 90 µL of the McCOY's 5A complete culture solution was added, and then 10 µL of DMSO was added, thus making the final concentration 5‰. • (3) Each target compound was three-fold diluted with a culture medium to 8 concentration gradients, with each concentration set in duplicate (10 µL/well). The final concentrations of each target compound were 1000.00/333.33/111.11/37.04/12.35/4.12/1.37/0.46 nM. • (4) The 96-well plate cultured for 24 h was taken out from the incubator, and the culture medium in the 96-well plate was carefully aspirated and discarded. A positive control group, test compound groups, and a DMSO (5‰) control group were set, and 10 µL of the corresponding compound was added to each group. […]

U937 cells = test: Inhibition of TNF-α-induced necroptosis of U937 cells (CCK-8 assay); assay type: cell-based, human; details: Homo sapiens, U-937, TNF-α 20 ng/mL + BV6 2 µM + Z-VAD-FMK 20 µM, 18 h
Description: Example 56: Inhibition of TNF-α-Induced Necroptosis of U937 Cells by Compounds
• 1. Experimental reagents: RPMI-1640 culture medium, fetal bovine serum, penicillin-streptomycin, TNF-α (MCE, HY-P7058), BV6 (MCE, HY-16701), Z-VAD-FMK (MCE, HY-16658B), and CCK-8 (Dalian Meilun Biotech Co., Ltd., MA0218). • 2. Experimental instruments: medical low-temperature freezer (Thermo Fisher scientific, 902-ULTS), electrically heated thermostatic water bath (Shanghai Bluepard Instruments Co., Ltd., CD-420), low-speed centrifuge (ANHUI USTC Zonkia Scientific Instruments Co., Ltd, SC-3616), carbon dioxide incubator (Shanghai Bluepard Instruments Co., Ltd., BPN-150CH(UV)), inverted microscope (Olympus, CKX53), multi-functional microplate reader (Thermo Tecan, SPARK), class-II biosafety cabinet (AIRTECH, BSC-1304IIA2), and desktop cell counter (Thermo Fisher Scientific, Countess II). • 3. Cell culturing: U937 cells (human histiocytic lymphoma cells) were cultured in an RPMI-1640 culture solution containing 10% fetal bovine serum and 1% penicillin-streptomycin solution in a 5% CO2 incubator at 37 °C and a saturated humidity. The cell culture flask was vertically placed in the incubator. A T25 culture flask was used as an example, the culture solution in the flask was 6-8 mL, and culture medium changes and cell passaging were performed 3-4 times a week. • 4. […] The culture medium was taken out from the freezer and transferred to the water bath for pre-heating. An appropriate amount of culture medium was then taken for use. • (2) The cell suspension was transferred to a 15 mL sterile centrifuge tube and centrifuged at 850 rpm for 4 min to collect U937 cells. • (3) The supernatant was carefully discarded, and an appropriate amount of culture medium was added. The mixture was gently pipetted using a pipette to homogenize the cells and thus prepare a single-cell suspension, and the cells were counted. • (4) The cells were diluted to 4 × 10^5/mL and seeded into a 96-well plate at 90 µL/well, such that the cell density in the 96-well plate was 3.6 × 10 ^4 cells/well. The cells were incubated in a 5% CO 2 incubator at 37 °C and a saturated humidity for 6 h, followed by the addition of compounds. • 4.2 Dilution and addition of compounds: • (1) TNF-α was dissolved in PBS to obtain a 100 µg/mL stock solution and aliquoted; Z-VAD-FMK was dissolved in DMSO to obtain a 10 mM stock solution and aliquoted; BV6 was dissolved in DMSO to obtain a 10 mM stock solution and aliquoted; GSK2982772 was dissolved in DMSO to obtain a 10 mM stock solution and aliquoted. One aliquot of each stock solution was stored at -20 °C for immediate use, while the remaining aliquots were stored at - 80 °C and used within their shelf life. • (2) RPMI-1640 culture medium containing TNF-α, BV6, and Z-VAD-FMK was prepared (5 µL/per well), such that the final concentrations of TNF-α, BV6, and Z-VAD-FMK were 20 ng/mL, 2 µM, and 20 µM, respectively. • (3) Each target compound was three-fold diluted with a culture medium to 8 concentration gradients, with each concentration set in duplicate (5 µL/well). The final concentrations of each target compound were 1000.00/333.33/111.11/37.04/12.35/4.12/1.37/0.46 nM. • (4) The 96-well plate containing 90 µL of cell suspension was taken out from an incubator, and a positive control group, test compound groups, and a DMSO (5‰) control group were set. 5 µL of RPMI-1640 culture solution containing TNF-α, BV6, and Z-VAD-FMK and 5 µL of culture solution containing the test compound were added to the positive control group and the test compound groups. After compound addition, the mixtures were cultured for 18 h, followed by the CCK-8 assay. • (5) The 96-well plate was taken out, and the CCK-8 reagent was carefully added at 10 µL/well. The mixtures were incubated at 37 °C for 2-4 h, and the absorbance value was measured at a wavelength of 450 nm. • 5. Evaluation of inhibitory activity of compounds on TNF-α-induced necroptosis of U937 [formula] […]

SMILES | EC50 (HT-29 cells) | EC50 (U937 cells)
O=C(NC1CCc2cc(C#Cc3ccncc3)cc3c2N(CC3)C1=O)c1nnc(Cc2c(Cl)cccc2Cl)[nH]1 (stereo not drawn) [Compound I-13, 5-(2,6-dichlorobenzyl)-N-(4-oxo-9-(pyridin-4-ylethynyl)-1,2,3,4,6,7-hexahydroazepino[3,2,1-hi]indol-3-yl)-4H-1,2,4-triazole-3-carboxamide] | > 200 nM | > 200 nM
Cn1cc(C#Cc2cc3c4c(c2)CCN4C(=O)C(NC(=O)c2cccc(Oc4ccccc4)n2)CC3)cn1 (stereo not drawn) [Compound V-1, N-(9-((1-methyl-1H-pyrazol-4-yl)ethynyl)-4-oxo-1,2,3,4,6,7-hexahydroazepino[3,2,1-hi]indol-3-yl)-6-phenoxypicolinamide] | > 200 nM | > 200 nM
Cn1cc(C#Cc2cc3c4c(c2)CCN4C(=O)C(NC(=O)c2ccc(Oc4ccccc4)cn2)CC3)cn1 (stereo not drawn) [Compound V-2, N-(9-((1-methyl-1H-pyrazol-4-yl)ethynyl)-4-oxo-1,2,3,4,6,7-hexahydroazepino[3,2,1-hi]indol-3-yl)-5-phenoxypicolinamide] | > 200 nM | > 200 nM
O=C(NC1CCc2ccc(C#Cc3ccccn3)c3c2N(CC3)C1=O)c1nnc(Cc2ccccc2)[nH]1 (stereo not drawn) [II-1, 5-benzyl-N-(4-oxo-8-(pyridin-2-ylethynyl)-1,2,3,4,6,7-hexahydroazepino[3,2,1-hi]indol-3-yl)-4H-1,2,4-triazole-3-carboxamide] | 10 to 100 nM | 10 to 100 nM
O=C(NC1CCc2ccc(C#Cc3cccnc3)c3c2N(CC3)C1=O)c1nnc(Cc2ccccc2)[nH]1 (stereo not drawn) [II-2, 5-benzyl-N-(4-oxo-8-(pyridin-3-ylethynyl)-1,2,3,4,6,7-hexahydroazepino[3,2,1-hi]indol-3-yl)-4H-1,2,4-triazole-3-carboxamide] | 10 to 100 nM | 100 to 200 nM
O=C(NC1CCc2ccc(C#CC3CC3)c3c2N(CC3)C1=O)c1nnc(Cc2ccccc2)[nH]1 (stereo not drawn) [II-3, 5-benzyl-N-(8-(cyclopropylethynyl)-4-oxo-1,2,3,4,6,7-hexahydroazepino[3,2,1-hi]indol-3-yl)-4H-1,2,4-triazole-3-carboxamide] | 100 to 200 nM | > 200 nM
O=C(NC1CCc2ccc(C#Cc3ccncc3)c3c2N(CC3)C1=O)c1nnc(Cc2ccccc2)[nH]1 (stereo not drawn) [II-4, 5-benzyl-N-(4-oxo-8-(pyridin-4-ylethynyl)-1,2,3,4,6,7-hexahydroazepino[3,2,1-hi]indol-3-yl)-4H-1,2,4-triazole-3-carboxamide] | 100 to 200 nM | 10 to 100 nM
O=C(NC1CCc2cc(C#Cc3ccncc3)cc3c2N(CC3)C1=O)c1ncn(Cc2c(F)cccc2F)n1 (stereo not drawn) [III-2, 1-(2,6-difluorobenzyl)-N-(4-oxo-9-(pyridin-4-ylethynyl)-1,2,3,4,6,7-hexahydroazepino[3,2,1-hi]indol-3-yl)-1H-1,2,4-triazole-3-carboxamide] | 10 to 100 nM | < 5 nM
O=C(NC1CCc2cc(C#Cc3ccncc3)cc3c2N(CC3)C1=O)c1ncn(Cc2ccccc2)n1 (stereo not drawn) [III-3, 1-benzyl-N-(4-oxo-9-(pyridin-4-ylethynyl)-1,2,3,4,6,7-hexahydroazepino[3,2,1-hi]indol-3-yl)-1H-1,2,4-triazole-3-carboxamide] | 10 to 100 nM | 10 to 100 nM
CC(C)(O)C#Cc1cc2c3c(c1)CCN3C(=O)C(NC(=O)c1ncn(Cc3c(F)cccc3F)n1)CC2 (stereo not drawn) [III-4, 1-(2,6-difluorobenzyl)-N-(9-(3-hydroxy-3-methylbut-1-yn-1-yl)-4-oxo-1,2,3,4,6,7-hexahydroazepino[3,2,1-hi]indol-3-yl)-1H-1,2,4-triazole-3-carboxamide] | < 5 nM | < 5 nM
COCC#Cc1cc2c3c(c1)CCN3C(=O)C(NC(=O)c1ncn(Cc3c(F)cccc3F)n1)CC2 (stereo not drawn) [III-5, 1-(2,6-difluorobenzyl)-N-(9-(3-methoxyprop-1-yn-1-yl)-4-oxo-1,2,3,4,6,7-hexahydroazepino[3,2,1-hi]indol-3-yl)-1H-1,2,4-triazole-3-carboxamide] | < 5 nM | < 5 nM
O=C(NC1CCc2cc(C#CC3CC3)cc3c2N(CC3)C1=O)c1ncn(Cc2c(F)cccc2F)n1 (stereo not drawn) [III-6, N-(9-(cyclopropylethynyl)-4-oxo-1,2,3,4,6,7-hexahydroazepino[3,2,1-hi]indol-3-yl)-1-(2,6-difluorobenzyl)-1H-1,2,4-triazole-3-carboxamide] | 5 to 10 nM | 10 to 100 nM
